Entries after “also recorded” stand apart in the source; their conditions may differ.
Legend:
[1] = tested on: MIAPACA2 and PATU-8902 cells; test: 3D growth assay (CyQUANT) in MIAPACA2 and PATU-8902 cells; assay type: cell-based; settings: 3 days
Experimental: (§1) 2,500 cells were seeded into a low-attachment 96-well plate containing DMEM+10% dialysed FBS and 3% Matrigel. […] To measure 3D growth with the CyQUANT Cell Proliferation Assay kit, plates were frozen at −80° C., thawed at room temperature, and equal volumes of 2× CyQUANT reagent+lysis buffer was added to the wells. As a control, wells containing medium and no cells were used as blanks. CyQUANT measurements were performed as described in the manufacturer's instructions.
as §1, with “2×CyQUANT” for “2× CyQUANT”, “Wells” for “As a control, wells”, “blanks.” for “blanks. CyQUANT measurements were performed as described in the manufacturer's instructions.”

[2] = tested on: MIAPACA2 and PATU8902 xenografts; test: PDAC pancreas orthotopic xenografts in athymic nude mice; assay type: in vivo
Experimental: Pancreas orthotopic xenografts were established as follows. In brief, 6-week-old female immunocompromised athymic nude mice (CrTac:NCr-Foxnlnu) were orthotopically injected with tumor cells into the pancreas. Mice were anaesthetized with ketamine (120 mg kg−1) and xylazine (10 mg kg−1) before surgery. MIAPACA2 or PATU-8902 ([…]) were suspended in 20 μl of 50% growth factor-reduced Matrigel (BD Science), and injected into the pancreas. Mice were treated with buprenorphine every 12 h after surgery for 48 h. […] Both compounds were dissolved into mice water every day to avoid degradation. Mice were sacrificed when tumor development led to significant deterioration of their condition.

C57BL/6 pups = test: Pup survival after daily oral gavage; assay type: in vivo
cells = test: Cellular uptake of 4-HMA and incorporation into CoQ10; assay type: cell-based
[3] = target: T1, human His-tagged HPDL (4-hydroxyphenylpyruvate dioxygenase-like), recombinant, from expiSF9 insect cells (Homo sapiens, UniProt Q96IR7); test: Inhibition of HPDL activity: His-tagged HPDL incubated with HPPA at various inhibitor concentrations, 4HMA production followed by GC-MS; assay type: biochemical
T1 construct: His tag; made in house; host or cells: expiSF9 insect cells (virus infection)
T1 sequence (Q96IR7 1-371): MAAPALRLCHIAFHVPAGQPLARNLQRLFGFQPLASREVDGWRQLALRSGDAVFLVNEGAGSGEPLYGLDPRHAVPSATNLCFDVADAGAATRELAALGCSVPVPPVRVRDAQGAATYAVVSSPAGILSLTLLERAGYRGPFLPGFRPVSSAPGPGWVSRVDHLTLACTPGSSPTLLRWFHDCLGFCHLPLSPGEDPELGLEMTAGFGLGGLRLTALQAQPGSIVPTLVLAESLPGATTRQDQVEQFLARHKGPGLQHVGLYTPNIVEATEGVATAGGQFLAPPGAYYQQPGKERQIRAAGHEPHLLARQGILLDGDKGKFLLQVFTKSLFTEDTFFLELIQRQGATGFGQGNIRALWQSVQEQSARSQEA
Description: The four curves in Panel (A) represent dose-response curves for, from left to right, ibuprofen, dopamine, montelukast, and methyldopa, respectively.
A culture of expiSF9 cells (5×10^6 viable cells/mL and ≥90% viability) were infected with high-titer virus (human His-tagged HPDL).

HPDL = target: T2, HPDL (Homo sapiens, UniProt Q96IR7); test: Fluorescence based thermal shift assay (FTS) on purified HPDL; assay type: binding; settings: 10 μM compound, 1 μM HPDL
T2 construct: His tag; made in house; host or cells: expiSF9 insect cells (inferred: the only HPDL preparation described)
T2 sequence (Q96IR7 1-371): T1 sequence (Q96IR7 1-371)
Experimental: This experiment evaluates an FDA approved library of small molecules by thermal shift in order to identify binders of HPDL. Fluorescence based thermal shift assay (FTS) was conducted on Bio-Rad real time PCR detection system. A total of 20 μL/well solution was prepared containing 1 μM HPDL, 2× fluorescent dye (Applied Biosystems, Life Technologies) and small molecules at […] concentration in buffer (50 mM HEPES pH 7.5 and 20 μM FeSO4). The plate was heated at 1% of ramp rate (−1.5° C./min) from 25 to 95° C., and Rox was selected as reporter for detection of fluorescence intensity. The melting temperature was recorded for every compound and compared to the reference HPDL melting temperature.
This experiment evaluates if COX inhibition is responsible for the decrease of cell growth in 3D. The ability of aspirin, another COX inhibitor, to bind HPDL was evaluated using thermal shift assay. Fluorescence based thermal shift assay (FTS) was conducted on Bio-Rad real time PCR detection system. […] The plate was heated at 1% of ramp rate (˜1.5° C./min) from 25 to 95° C., and Rox was selected as reporter for detection of fluorescence intensity. The melting temperature was recorded for every compound and compared to the reference HPDL melting temperature.

MIAPACA2 cells = test: 3D growth assay (CyQUANT) in MIAPACA2 cells, ibuprofen vs aspirin; assay type: cell-based; settings: 100 uM added daily, 3 days
Experimental: (§2) This experiment evaluates if COX inhibition is responsible for the decrease of cell growth in 3D. The ability of aspirin, another COX inhibitor, to affect cell growth of HPDL-dependent cell lines in 3D was evaluated. 2,500 cells were seeded into a low-attachment 96-well plate containing DMEM+10% dialysed FBS and 3% Matrigel. […] To measure 3D growth with the CyQUANT Cell Proliferation Assay kit, plates were frozen at −80° C., thawed at room temperature, and equal volumes of 2× CyQUANT reagent+lysis buffer was added to the wells. Wells containing medium and no cells were used as blanks.

His-tagged HPDL = target: T3, His-tagged HPDL (Homo sapiens, UniProt Q96IR7); settings: for compound amount at 50% activity level (rank among the four dose-response curves): FIG. 4(A) dose-response curves
T3 sequence (Q96IR7 1-371): T1 sequence (Q96IR7 1-371)

[4] = tested on: MIAPACA2 expressing control or HPDL sgRNA; test: 3D growth assay in MIAPACA2 expressing control or HPDL sgRNA, with or without coHPDL; assay type: cell-based; settings: ibuprofen 100 uM added daily, 3 days
Experimental: as §2, with “HPDL” for “COX”, “inhibition in cells” for “inhibition”, “The ability of aspirin, another COX inhibitor, to affect cell growth of HPDL-dependent cell lines in 3D was evaluated.” left out

O=C(O)C(O)c1ccc(O)cc1 (stereo not drawn) [4HMA, 4-hydroxymandelate]
rescue of ibuprofen-induced decrease of 3D cell growth ([1]; ibuprofen 100 uM and 4HMA 1 mM added daily): rescues ibuprofen-induced decreases cell growth in 3D | rescue of ibuprofen-induced decrease of xenograft growth ([2]; 4HMA 10 mg/kg with ibuprofen 100 mg/kg in drinking water): can rescue this decrease | rescue of ibuprofen-induced lethality (C57BL/6 pups; 4HMA 10 mg/kg with ibuprofen 200 mg/kg daily oral gavage): rescues ibuprofen-induced lethality in pups | uptake by cells and incorporation into CoQ10 (cells): readily taken up by cells and incorporated into CoQ10

CC(C)(O)c1ccccc1CC[C@@H](SCC1(CC(=O)O)CC1)c1cccc(/C=C/c2ccc3ccc(Cl)cc3n2)c1 [D00005 row 1, montelukast]
IC50 [3]: > 100 µM

NCCc1ccc(O)c(O)c1 [D00005 row 2, dopamine]
IC50 [3]: 41.3 µM

C[C@](N)(Cc1ccc(O)c(O)c1)C(=O)O [D00005 row 3, methyldopa]
IC50 [3]: > 100 µM

CC(C)Cc1ccc(C(C)C(=O)O)cc1 (stereo not drawn) [D00005 row 4, ibuprofen]
IC50 [3]: 16.6 µM

CC(=O)Oc1ccccc1C(=O)O [aspirin]
HPDL binding by thermal shift (HPDL): does not act HPDL binder | 3D cell growth (MIAPACA2 cells): does not affect cell growth of HPDL-dependent cell lines

NCCc1ccc(O)c(O)c1 [dopamine]
inhibition of HPDL activity (His-tagged HPDL; 12 ng/μL HPDL, 10 μM HPPA, 1 h at 37° C., various inhibitor concentrations): inhibit the dioxygenase HPDL | compound amount at 50% activity level (rank among the four dose-response curves) (His-tagged HPDL): second least

CC(C)Cc1ccc(C(C)C(=O)O)cc1 (stereo not drawn) [ibuprofen]
3D cell growth ([1]; ibuprofen 100 uM added daily): selectively decreases cell growth of HPDL-dependent cell lines in 3D | 3D cell growth (MIAPACA2 cells): affects cell growth of HPDL-dependent cell lines in 3D | sensitivity of 3D growth to ibuprofen on HPDL deletion [4]: HPDL deletion reduces sensitivity to ibuprofen treatment in 3D | orthotopic pancreatic tumor growth (tumor weight) ([2]; ibuprofen 100 mg/kg in drinking water): affects the growth of HPDL-dependent PDAC orthotopic xenografts | pup development and survival (C57BL/6 pups; ibuprofen 200 mg/kg daily oral gavage, started at 3, 5 and 10 days): affects the development of pups; also recorded: ibuprofen-induced lethality in pups | compound amount at 50% activity level (rank among the four dose-response curves) (His-tagged HPDL): least
